The subject of data set [1] is M. abscessus (lux) in THP-1 cells. Type of data set: cell-based, Mycobacterium abscessus. The note with it: THP-1 infection, data not shown. As to the method: (§1) THP-1 cells were treated with phorbol 12-myristate 13-acetate (PMA; Sigma-Aldrich, USA) at a final concentration of 50 nM for 40 hours. Infection with M. abscessus containing pTEC15 green fluorescence or luciferase was performed at 37° C. in the presence of 5% CO2 at a multiplicity of […] (MOI) of 2:1 for 3 hours. After extensive washing with PBS, the cells were incubated in a culture medium containing […] of gentamicin for 30 minutes and washed again with PBS. […] Macrophages were stained with SYTO 60 (Invitrogen, USA) dye at a final concentration of 5 μM at 37° C. in a 5% CO2 atmosphere for 30 minutes. On the day 4, luminescence was measured with a Synergy H1 microplate reader (Bio-Tek, USA). The fluorescence microscopic images of living cells were captured with a Lionheart™ FX automated microscope (BIO-Tek, USA). The Gen5™ 3.05 software object feature was available for identification of the cells in the imaging field.
(§2) The use of a double read assay results in dose-response curves for both inhibition for M. abscessus and cytotoxicity to THP-1 cells as determined in a same experiment. […] The cytotoxicity was determined using a SYTO 60 probe.

The subject of data set [2] is M. abscessus (ATCC 19997). Particulars: known value used for selecting resistant mutants; cited from earlier work.
Data set [3] concerns clarithromycin-resistant M. abscessus mutants (M. abscessus CLR-R). The data set can be described thus: REMA dose-response against clarithromycin-resistant mutants. Type of data set: cell-based, Mycobacterium abscessus. The note with it: mutant produced in presence of 100 mg/L CLR, FIG. 3. The protocol: (§3) Experiments were performed in triplicates.
It was also tested to determine whether CC inhibits the growth of the drug-resistant strains produced in the present invention in the presence of high concentration (100 mg/L) CLR used for therapy against M. abscessus. […] Accordingly, CC is considered as an active drug for the treatment of CLR-resistant M. abscessus.

Data set [4] deals with M. abscessus in biofilm culture. Nature of the data set: Biofilm assay (Calgary Biofilm Device, MBEC Assay). Type of data set: cell-based, Mycobacterium abscessus. The protocol:
The first biofilm assay system was the Calgary Biofilm Device used by Bardouniotis et al. to evaluate the bactericidal activity or minimum biofilm eradication concentration (MBEC) of a biocidal active substance against Mycobacterium phlei. In the present invention, MBEC Assay® (Innovotech, Edmonton, Canada) for MBEC measurement was used. Biofilm formation was performed as follows. […] Then, the 96-well microliter plate was covered with a 96-peg lid and incubated for 4 days. After washing, the bacteria remaining on the biofilms were removed from the wells by ultrasonication in the medium. Finally, after incubation, the adherent bacteria remaining on the biofilms with or without antibiotics were quantified with resazurin.

In a further data set the test system is biofilm-forming microbes. Particulars: Munoz-Egea et al.; cited from earlier work.
Data set [5] relates to M. abscessus (ATCC 19997) under anaerobic conditions. Nature of the data set: Resazurin dose-response under anaerobic non-replicating culture. Type of data set: cell-based, Mycobacterium abscessus. The protocol: In order to determine the antibiotic ability against M. abscessus (ATCC 19997) under anaerobic conditions, a bacterial culture (5×10^6 bacteria/mL) was inoculated into 5 mL of 7H9 broth (BD, 271310) supplemented with 10% OADC. The bacterial culture was placed in an anaerobic jar (BD BBLIM GasPAK™ Jar; Franklin Lakes, NJ, USA). Here, a BD BBLIM GasPAK™ anaerobic indicator (methylene blue for monitoring oxygen depletion) was used. The bacteria were cultured in cation-adjusted Mueller-Hinton broth (MH; Sigma-Aldrich, 90922) for drug susceptibility testing.
as §3
A comparison was made between the growth rates under aerobic, anaerobic and restored aerobic conditions in a same culture medium.

In data set [6] the test system is M. abscessus (ATCC 19997). Nature of the data set: Resazurin (REMA) broth microdilution dose-response, aerobic culture. Type of data set: cell-based, Mycobacterium abscessus.
Protocol: Three strains of M. abscessus (ATCC 19997), M. avium (ATCC 25291) and M. intracellulare (ATCC 13950) were cultured at 37° C. in Middlebrook 7H9 broth (BD, 27130) supplemented with 10% OADC (BD, 212240), 0.5% glycerol and 0.05% Tween-80.
The minimum inhibitory concentration (MIC) was determined according to the guideline by the CLSI (Clinical & Laboratory Standards Institute). The CLSI broth microdilution method recommended by MH was used with an inoculum having an OD of 0.001/ml in the exponential phase of growth.
Then, incubation was carried out at 37° C. for 3 hours, followed by adding 40 mL of 0.025% resazurin. After incubation overnight, the fluorescence of resorufin (metabolite resazurin) was measured with a Synergy H1 Hybrid Multi-Mode Reader (Bio-Tek, VT, USA). IC50 values were calculated from raw fluorescence data using Prism 5.0 software (GraphPad Inc., La Jolla, CA, USA). Experiments were performed in triplicates.
Data set [7] relates to THP-1 cells. Nature of the data set: WST-8 cell viability and LDH cytotoxicity assay. Type of data set: cell-based, human. The note with it: THP-1, 24 hours, FIG. 7. As to the method: (§4) THP-1 (ATCC TIB-202) and HCT-8 (ATCC CCL-244) cells were measured in regards to cell viability and cytotoxicity of CC using a WST-8 cell viability assay kit (MediFab, S. Korea) and a CytoTox 96® non-radioactive cytotoxicity assay kit (Promega, Madison, WI, USA), respectively. Differentiated THP-1 cells (1.0×10^5 cells/well) and HCT-8 cells (2.0×10^4 cells/well) were placed in 96-well plates and incubated at 37° C. for 24 hours. Here, CC was added to the cells at different concentrations. For cell viability assay, 10 μL of the reagent (10% medium volume) was added to each well, followed by incubation for 4 hours. The resulting color was measured at 450 nm. For LDH cytotoxicity assay, 50 μL of a reagent for LDH detection was added to each well, and incubation was performed in the dark for 30 minutes. The resulting color was measured at 490 nm. In this regard, the cells treated with 1% Triton™ X-100 were used as a positive control, and those treated with DMSO were all tested negative in both experiments.

Data set [8] has as its system THP-1 cells. As to the method: as §1, §2
The subject of data set [9] is human colonic epithelial cells (HCT-8). The data set can be described thus: WST-8 cell viability and LDH cytotoxicity assay. Type of data set: cell-based. Particulars: HCT-8, 24 hours, FIG. 7. The protocol: as §4

Results on two compounds are retold here after patent publication US20240197655A1 (REPUBLIC OF KOREA(MASAN NATIONAL TUBERCULOSIS HOSPITAL), priority 2021, published 2024).

Values after ≈ are worked out from the molar mass of the structure shown. Counter-ions that a name gives are not always drawn.

For the compound `CC[C@H]1OC(=O)[C@H](C)[C@@H](O[C@H]2C[C@@](C)(OC)[C@@H](O)[C@H](C)O2)[C@H](C)[C@@H](O[C@@H]2O[C@H](C)C[C@H](N(C)C)[C@H]2O)[C@](C)(OC)C[C@@H](C)C(=O)[C@H](C)[C@@H](O)[C@]1(C)O` [CLR, clarithromycin], the “effect on intracellular bacterial replication” value in [1] was “prevented bacterial replication”. Besides, the “known MIC value” in [2] is on record as 0.1 mg/L. In data set [3], the “resistance of produced mutant to CLR” value is on record as “high drug resistance”. Also, the “MBEC relative to general MIC” value in data set [4] (MBEC vs MIC) is recorded as 2,000 fold. The IC50 is greater than 100 mg/L in data set [4] (Mycobacteroides abscessus, biofilm culture, FIG. 4); 0.0778 mg/L (≈ 0.104 µM) in data set [5] (Mycobacteroides abscessus, ATCC19997, anaerobic culture conditions, FIG. 4); 0.046 mg/L (≈ 0.0615 µM) in data set [6] (Mycobacteroides abscessus, ATCC19997, aerobic culture conditions, FIG. 4). The “MBEC for M. abscessus” value in data set [4] (biofilm) is “above 100 μg”. Further, the “MBEC relative to MIC” value in the data set on biofilm-forming microbes is reported as 100,000 fold. In addition, in data set [5] (anaerobic vs aerobic culture), the “shift of the IC50 value, anaerobic versus aerobic” value is given as 2 fold. The “general MIC” value in data set [6] was 0.46 µg.

As for `CCN(CC)CCOc1ccc(C(=C(Cl)c2ccccc2)c2ccccc2)cc1` [CC, clomiphene citrate], the “effect on cell viability” value (in the data set with THP-1 cells [7]; in data set [9]) was “no harm on the viability” in each case. Moreover, in the data set with THP-1 cells [8], the “cytotoxicity to THP-1 cells” value is recorded as “without cytotoxicity”.
